Reference: patent US9815842B2, “Pyrazolo pyrimidine derivatives and their use as MALT1 inhibitors” (Novartis AG, priority 2014, dated 2017)

Legend:
[1] = test system: Human IL2 promoter; experiment: Human IL2 promoter reporter gene assay (RGA) in Jurkat cells; type: cell-based; settings: Jurkat clone K22 290_H23, anti-CD28 mAb + PMA stimulation 5.5 h
Experimental: Human IL2 Promoter Reporter Gene Assay (RGA) in Jurkat Cells
The transfected Jurkat clone K22 290_H23 was propagated in RPMI 1640 supplemented with 10% heat inactivated fetal calf serum, 50 μM 2-mercaptoethanol and 1 mg/ml Geneticin. The cell concentration should not exceed 1×10e6/ml during culturing. The cells should not exceed passage 30. Prior to the assay the cells were washed and prepared to the concentration of 2×10e6 cells/ml.
Compound dilutions were made as 2×-concentrated solutions then diluted 1/2 by addition to cells. Two hundred and fifty μl of compound dilution and 250 μl of cells were mixed together in wells of a 96-deep well plate. Cells/compounds premix were incubated 30 min at 37° C. and 5% CO2 directly in the deep well plate.
After pre-incubation of cells with compounds, cells were stimulated with anti-CD28 mAb (clone 15E8) at 3 μg/ml+PMA at 1 μg/ml. Both co-stimulants were diluted in culture medium at a 10×-concentrated solution. 10 μl of co-stimulants were pipetted into the white 96-well plates and 100 μl of cell/compound mix was immediately added in duplicates. The cells were stimulated for 5.5 h at 37° C. and 5% CO2.
After cell stimulation, 50 μl of BriteLitePlus reagent (Perkin Elmer) was added to each well and the bioluminescence was measured with a Wallac EnVision reader (Perkin Elmer).

[2] = target: C-domain of MALT1 (amino acids 329-824) (Homo sapiens (Human), UniProt Q9UDY8); experiment: MALT1 biochemical assay (fluorescence lifetime enzyme activity assay); settings: 60 min pre-incubation, 2.5 nM enzyme, 1 μM peptide substrate
Sequence of C-domain of MALT1 (amino acids 329-824) (Q9UDY8 329-824): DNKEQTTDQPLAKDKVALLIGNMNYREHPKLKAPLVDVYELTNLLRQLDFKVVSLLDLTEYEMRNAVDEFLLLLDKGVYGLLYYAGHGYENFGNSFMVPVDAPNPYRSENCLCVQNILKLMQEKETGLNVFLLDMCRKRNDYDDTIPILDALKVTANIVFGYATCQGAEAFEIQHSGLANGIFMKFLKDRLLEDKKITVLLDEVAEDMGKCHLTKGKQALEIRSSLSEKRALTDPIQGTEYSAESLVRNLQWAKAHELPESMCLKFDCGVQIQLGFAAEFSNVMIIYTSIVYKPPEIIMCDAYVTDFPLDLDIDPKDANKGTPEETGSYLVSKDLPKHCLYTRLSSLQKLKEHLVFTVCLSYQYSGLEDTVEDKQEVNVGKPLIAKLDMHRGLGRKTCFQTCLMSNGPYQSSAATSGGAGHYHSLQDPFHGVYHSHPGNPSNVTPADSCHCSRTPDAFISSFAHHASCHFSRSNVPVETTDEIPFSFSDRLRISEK
Experimental: The readout parameter is the increase of fluorescence lifetime over time, proportional to enzyme activity.
The assay employs a short peptide substrate labeled with the single fluorophore PT14 as a fluorescence lifetime probe sensitive to the cleavage state of the substrate (PT14: 6-(9-oxo-9H-acridin-10-yl)-hexanoate, AssayMetrics, UK). […] The assay buffer consists of 200 mM Tris/HCl at pH 7.5, 0.8 M Na citrate, 100 μM EGTA, 100 μM DTT and 0.05% (w/v) CHAPS. […] Test compounds were dissolved in 100% (v/v) DMSO or a mixture containing 90% (v/v) DMSO and 10% (v/v) H2O at a stock concentration of 100 mM. Serial dilutions of test compounds were prepared using either 100% (v/v) DMSO or a mixture containing 90% (v/v) DMSO and 10% (v/v) H2O.

Structure (SMILES)	IC50 [1] [nM]	IC50 [2] [nM]
CO[C@@H](C)c1c(NC(=O)Nc2ccnc(C(F)(F)F)c2)cnc2cc(F)nn12 [Example 7, (S)-1-(2-fluoro-7-(1-methoxyethyl)pyrazolo[1,5-a]pyrimidin-6-yl)-3-(2-(trifluoromethyl)pyridin-4-yl)urea]	30	8
CO[C@@H](C)c1c(NC(=O)Nc2cncc(C#N)c2)cnc2cc(Cl)nn12 [Example 8, (S)-1-(2-chloro-7-(1-methoxyethyl)pyrazolo[1,5-a]pyrimidin-6-yl)-3-(5-cyanopyridin-3-yl)urea]	33	–
CO[C@@H](C)c1c(NC(=O)Nc2cnc(-n3nccn3)c(Cl)c2)cnc2cc(Cl)nn12 [Example 10, (S)-1-(5-chloro-6-(2H-1,2,3-triazol-2-yl)pyridin-3-yl)-3-(2-chloro-7-(1-methoxyethyl)pyrazolo[1,5-a]pyrimidin-6-yl)urea]	19	–
CC(C)c1c(NC(=O)Nc2cnc(-n3nccn3)c(Cl)c2)cnc2cc(Cl)nn12 [Example 21, 1-(5-chloro-6-(2H-1,2,3-triazol-2-yl)pyridin-3-yl)-3-(2-chloro-7-isopropylpyrazolo[1,5-a]pyrimidin-6-yl)urea]	104	–
CC(C)c1c(NC(=O)Nc2cnc(-c3ccnn3C)c(Cl)c2)cnc2cc(Cl)nn12 [Example 29, 1-(5-chloro-6-(1-methyl-1H-pyrazol-5-yl)pyridin-3-yl)-3-(2-chloro-7-isopropylpyrazolo[1,5-a]pyrimidin-6-yl)urea]	–	370
CO[C@H](C)c1c(NC(=O)Nc2cnc(-n3nccn3)c(Cl)c2)cnc2cc(Cl)nn12 [Example 46, (R)-1-(5-chloro-6-(2H-1,2,3-triazol-2-yl)pyridin-3-yl)-3-(2-chloro-7-(1-methoxyethyl)pyrazolo[1,5-a]pyrimidin-6-yl)urea]	82	–
O=C(Nc1cnc(-n2nccn2)c(Cl)c1)Nc1cnc2cc(Cl)nn2c1C1CCOCC1 [Example 58, 1-(5-chloro-6-(2H-1,2,3-triazol-2-yl)pyridin-3-yl)-3-(2-chloro-7-(tetrahydro-2H-pyran-4-yl)pyrazolo[1,5-a]pyrimidin-6-yl)urea]	267	–
CO[C@@H](C)c1c(NC(=O)Nc2cnc(-n3nccn3)c(C(F)F)c2)cnc2cc(Cl)nn12 [Example 89, (S)-1-(2-chloro-7-(1-methoxyethyl)pyrazolo[1,5-a]pyrimidin-6-yl)-3-(5-(difluoromethyl)-6-(2H-1,2,3-triazol-2-yl)pyridin-3-yl)urea]	46	3
CO[C@@H](C)c1c(NC(=O)Nc2ccnc(C(F)F)c2)cnc2cc(Cl)nn12 [Example 92, (S)-1-(2-chloro-7-(1-methoxyethyl)pyrazolo[1,5-a]pyrimidin-6-yl)-3-(2-(difluoromethyl)pyridin-4-yl)urea]	46	9
CO[C@@H](C)c1c(NC(=O)Nc2cnc(OC(F)F)c(Cl)c2)cnc2cc(Cl)nn12 [Example 93, (S)-1-(5-chloro-6-(difluoromethoxy)pyridin-3-yl)-3-(2-chloro-7-(1-methoxyethyl)pyrazolo[1,5-a]pyrimidin-6-yl)urea]	157	1
CO[C@@H](C)c1c(NC(=O)Nc2cnc(-n3nccn3)c(C(F)(F)F)c2)cnc2cc(F)nn12 [Example 94, (S)-1-(6-(2H-1,2,3-triazol-2-yl)-5-(trifluoromethyl)pyridin-3-yl)-3-(2-fluoro-7-(1-methoxyethyl)pyrazolo[1,5-a]pyrimidin-6-yl)urea]	16	2
CO[C@@H](C)c1c(NC(=O)Nc2cnc(-n3nccn3)c(Cl)c2)cnc2cc(F)nn12 [Example 95, (S)-1-(5-chloro-6-(2H-1,2,3-triazol-2-yl)pyridin-3-yl)-3-(2-fluoro-7-(1-methoxyethyl)pyrazolo[1,5-a]pyrimidin-6-yl)urea]	13	2
CO[C@@H](C)c1c(NC(=O)Nc2cnc(-n3nccn3)c(Cl)c2)cnc2cc(C#N)nn12 [Example 96, (S)-1-(5-chloro-6-(2H-1,2,3-tirazol-2-yl)pyridin-3-yl)-3-(2-cyano-7-(1-methoxyethyl)pyrazolo[1,5-a]pyrimidin-6-yl)urea]	49	10
COCCO[C@@H](C)c1c(NC(=O)Nc2cnc(OC(F)F)c(Cl)c2)cnc2cc(Cl)nn12 [Example 97, (S)-1-(5-chloro-6-(difluoromethoxy)pyridin-3-yl)-3-(2-chloro-7-(1-(2-methoxyethoxy)ethyl)pyrazolo[1,5-a]pyrimidin-6-yl)urea]	68	3
CO[C@H](c1c(NC(=O)Nc2cnc(-n3nccn3)c(Cl)c2)cnc2cc(Cl)nn12)[C@@H](C)OC [Example 98, 1-(5-chloro-6-(2H-1,2,3-triazol-2-yl)pyridin-3-yl)-3-(2-chloro-7-((1R,2R)-1,2-dimethoxypropyl)pyrazolo[1,5-a]pyrimidin-6-yl)urea]	44	–
CO[C@@H](C)c1c(NC(=O)Nc2cc(Cl)cnc2OCCN(C)C)cnc2cc(Cl)nn12 [Example 99, (S)-1-(5-chloro-2-(2-(dimethylamino)ethoxy)pyridin-3-yl)-3-(2-chloro-7-(1-methoxyethyl)pyrazolo[1,5-a]pyrimidin-6-yl)urea]	41	21
C[C@H](O[C@@H]1CCOC1)c1c(NC(=O)Nc2cnc(-n3nccn3)c(Cl)c2)cnc2cc(Cl)nn12 [Example 100, 1-(5-chloro-6-(2H-1,2,3-triazol-2-yl)pyridin-3-yl)-3-(2-chloro-7-((S)-1-(((R)-tetrahydrofuran-3-yl)oxy)ethyl)pyrazolo[1,5-a]pyrimidin-6-yl)urea]	84	19
C[C@H](O[C@H]1CCOC1)c1c(NC(=O)Nc2cnc(-n3nccn3)c(Cl)c2)cnc2cc(Cl)nn12 [Example 101, 1-(5-chloro-6-(2H-1,2,3-triazol-2-yl)pyridin-3-yl)-3-(2-chloro-7-((S)-1-(((S)-tetrahydrofuran-3-yl)oxy)ethyl)pyrazolo[1,5-a]pyrimidin-6-yl)urea]	25	5
C[C@H](OC[C@H]1CCOC1)c1c(NC(=O)Nc2cnc(-n3nccn3)c(Cl)c2)cnc2cc(Cl)nn12 [Example 102, 1-(5-chloro-6-(2H-1,2,3-triazol-2-yl)pyridin-3-yl)-3-(2-chloro-7-((S)-1-(((S)-tetrahydrofuran-3-yl)methoxy)ethyl)pyrazolo[1,5-a]pyrimidin-6-yl)urea]	14	3
C[C@H](OC[C@@H]1CCOC1)c1c(NC(=O)Nc2cnc(-n3nccn3)c(Cl)c2)cnc2cc(Cl)nn12 [Example 103, 1-(5-chloro-6-(2H-1,2,3-triazol-2-yl)pyridin-3-yl)-3-(2-chloro-7-((S)-1-(((R)-tetrahydrofuran-3-yl)methoxy)ethyl)pyrazolo[1,5-a]pyrimidin-6-yl)urea]	50	5
Cc1cc2ncc(NC(=O)Nc3cnc(-n4nccn4)c(Cl)c3)c(C3(C)CCCO3)n2n1 (stereo not drawn) [Example 104, 1-(5-chloro-6-(2H-1,2,3-triazol-2-yl)pyridin-3-yl)-3-(2-methyl-7-(2-methyltetrahydrofuran-2-yl)pyrazolo[1,5-a]pyrimidin-6-yl)urea]	24	2
CO[C@@H](C)c1c(NC(=O)Nc2ccnc(C#N)c2)cnc2cc(Cl)nn12 [Example 105, (S)-1-(2-chloro-7-(1-methoxyethyl)pyrazolo[1,5-a]pyrimidin-6-yl)-3-(2-cyanopyridin-4-yl)urea]	59	11
COCC1(c2c(NC(=O)Nc3cncc(C(F)(F)F)c3)cnc3cc(Cl)nn23)CCCO1 (stereo not drawn) [Example 106, 1-(2-chloro-7-(2-(methoxymethyl)tetrahydrofuran-2-yl)pyrazolo[1,5-a]pyrimidin-6-yl)-3-(5-(trifluoromethyl)pyridin-3-yl)urea]	484	8
CN(C)C1(c2c(NC(=O)Nc3cnc(-n4nccn4)c(C(F)(F)F)c3)cnc3cc(Cl)nn23)CC1 [Example 107, 1-(6-(2H-1,2,3-triazol-2-yl)-5-(trifluoromethyl)pyridin-3-yl)-3-(2-chloro-7-(1-(dimethylamino)cyclopropyl)pyrazolo[1,5-a]pyrimidin-6-yl)urea]	60	13
O=C(Nc1cnc(-n2nccn2)c(Cl)c1)Nc1cnc2cc(Cl)nn2c1C1COCCN1 (stereo not drawn) [Example 123, 1-(5-chloro-6-(2H-1,2,3-triazol-2-yl)pyridin-3-yl)-3-(2-chloro-7-(morpholin-3-yl)pyrazolo[1,5-a]pyrimidin-6-yl)urea]	199	–
